Experimental data taken from patent US12275685B2, “Oligo-benzamide analogs and their use in cancer treatment” (Board of Regents, The University of Texas System, priority 2018, dated 2025).

Legend:
TNBC cells = assay: Live cell imaging with SYTOX Green, TNBC; assay type: cell-based; details: within 30 hours of treatment
From the text: (§1) FIGS. 34A-C: Dose response curve of ERX-41 in multiple TNBC. cell lines using WST-1 assays (FIG. 34A) and CellTiter-Glo assays (FIG. 34B). […] Quantification of the number of dead cells over time seen with live cell imaging in MDAMB-231 and HMEC cells is shown.
(§2) To evaluate the generalizability of the inventors' findings, they evaluated ERX-41 in a large number of TNBC and ERa-positive cell lines.

[1] = system: parental SUM-159 xenografts; assay: Parental SUM-159 xenografts; assay type: in vivo, SCID mice; details: 10 mg/kg daily
From the text: FIGS. 37A-J: The molecular target of ERX-41 in TNBC is LIPA. […] (FIG. 37B) Knockout clones of LIPA, ACACA, TMEM208, SOAT1 and ARID1A were generated in MDA-MB-231 cells and evaluated for response to ERX-41 using doseresponse curves using CellTiter-Glo assays in vitro. (FIGS. 37C-D) Effect of knockout of LIPA in SUM-159 (FIG. 37C) and MDA-MB436 (FIG. 37D) on dose response curve to ERX-41 using CellTiter-Glo assays in vitro. (FIGS. 37E-F) Dose response curves of SUM-159 parental cells and clones with LIPA KO to thapsigargin (FIG. 37E) and paclitaxel (FIG. 37F). (FIGS. 37G-H) Live cell imaging studies with SYTOX Green to examine ability of 1 μM ERX-41 to induce cell death in parental SUM-159 and SUM-159 clones with LIPA KO, with quantitation (FIG. 37G) and time-lapsed photomicrographs at 0 h and 30 h ((FIG. 37H). (FIGS. 37I-J) SCID mice were implanted with either parental SUM-159 or SUM-159 clones with LIPA KO (n=6, each group) and tumors were allowed to establish (150 mm^3). Following daily intraperitoneal administration of 10 mg/kg ERX-41, tumor sizes were measured and graphed (FIG. 37I), along with mice body weights (FIG. 37J). *p<0.05. **p<0.01; ***p<0.001.
The molecular target of ERX-41 in TNBC is LIPA. […] Knockout clones of LIPA, SLC5A3, SMAP2, TMEM208, SOAT1 and ARID1A were generated in multiple TNBC cells and evaluated for response to ERX-41.

[2] = system: normal human mammary epithelial cells (HMEC); assay: WST, MTT or CellTiter-Glo assays in HMEC; assay type: cell-based; details: at >1 μM
From the text: as §1, §2

CC(C)COc1cc(C(=O)Nc2ccc(C(=O)N[C@H]3CC[C@H](C)CC3)cc2OCC(C)C)ccc1NC(=O)c1ccc([N+](=O)[O-])c(OCCO)c1 [TK41]
cell death, share of cells (TNBC cells): > 90%
response of parental SUM-159 xenografts [1]: responded significantly
effect against HMEC [2]: did not have significant effect
